Measurements: US20200155731A1, “DEVICE AND METHOD FOR PROMOTING RAPID STRUT COVERAGE AND VASCULAR ENDOTHELIAL COVERAGE” (priority 2017, published 2020)

How the values were obtained:
human VSMC [1] = assay: VSMC proliferation in bottles containing human VSMC, gene silencers vehicle lentivirus and plasmid; format: cell-based; settings: Experiment 2; lentivirus vehicle for siRNA; FIG. 1
Method: (§1) Therefore, Experiment 2 was carried out with the following groups: lentivirus+gene silencer TNFRSF11B-siRNA, lentivirus+gene silencer NCF4-siRNA, full control (no vehicle and no drug), lentivirus+gene silencer SM22a-siRNA+glyceraldehyde 3-phosphate dehydrogenase (GAPDH) (vehicle control 1), lentivirus+gene silencer MYH11-siRNA+GAPDH (vehicle control 2), sirolimus (drug control 1), and paclitaxel (drug control 2).
(§2) TNFRSF11B-siRNA and NCF4-siRNA are gene silencers of the TNFRSF11B and NCF4 genes, respectively. The delivery system of gene silencers was developed by inserting the respective gene silencers in a plasmid which is carried by a lentivirus. Lentivirus particles are intracellular transduction-ready viruses containing plasmids with gene silencers. After transduction, cells express permanently gene silencers. The density of cell cultures 24 hours before transfection was 2×10^5 cells/10 cm2 in culture medium. […]
(§3) Two control groups containing a lentivirus and a gene silencer of smooth muscle protein 22α (SM22α) or smooth muscle myosin heavy chain (MYH11) were used to assess the vehicle. […] Thus, said two gene silencers, SM22α-siRNA and MYH11-siRNA, were marked with glyceraldehyde 3-phosphate dehydrogenase (GAPDH), called bioconjugates, to ensure by means of fluorescence microscopy that the gene silencers effectively entered VSMC and EC. […]

human VSMC [2] = assay: VSMC proliferation in bottles containing human VSMC, vehicle nanoparticles (DSPE-PEG); format: cell-based
Description: […], 2 distearoyl-sn-glycero-3-phosphoethanolamine-Nmethxy (polyethyleneglycol)-2000 (DSPE-PEG) as a drug and gene silencer carrying vehicle instead of lentiviruses and plasmids which were used in the previous experiments. That being so, 8 groups were included for both assessment of nanoparticles as a vehicle and final confirmation of the previous results: control (nanoparticles only), MYH11-siRNA in nanoparticles, CNN1-siRNA in nanoparticles, sirolimus in nanoparticles, paclitaxel in nanoparticles, TNFRSF11B-siRNA in nanoparticles, NCF4-siRNA in nanoparticles, and MYL9-siRNA+GAPDH in nanoparticles.
(§4) The groups of sirolimus in nanoparticles and paclitaxel in nanoparticles were included to compare the efficacy in inhibiting VSMC proliferation. The groups of NFRSF11B-siRNA in nanoparticles and NCF4-siRNA in nanoparticles were tested again with a different vehicle for final confirmation of the negative results. The group of MYL9-siRNA+GAPDH in nanoparticles was studied to evaluate the vehicle efficacy, that is, to ensure that gene silencers would enter VSMC and EC using nanoparticles as a vehicle. […] MYL9-siRNA gene silencer was marked with GAPDH for later verification of its transfection into the cells through fluorescence microscopy. Finally, pure nanoparticles were used as a vehicle control, that is, with neither drug nor gene silencer. […]

human vascular EC = assay: EC proliferation in bottles containing human EC, gene silencers vehicle lentivirus and plasmid; format: cell-based; settings: Experiment 2; lentivirus vehicle for siRNA; FIG. 2
Method: as §1, §2, §3

human EC = assay: EC proliferation in bottles containing human EC, vehicle nanoparticles (DSPE-PEG); format: cell-based; settings: Experiment 5, control nanoparticles only, FIG. 7
Method: Experiment 5 was carried out by using nanoparticles of 1, 2 distearoyl-sn-glycero-3-phosphoethanolamine-Nmethxy (polyethyleneglycol)-2000 (DSPE-PEG) as a drug and gene silencer carrying vehicle instead of lentiviruses and plasmids which were used in the previous experiments. That being so, 8 groups were included for both assessment of nanoparticles as a vehicle and final confirmation of the previous results: control (nanoparticles only), MYH11-siRNA in nanoparticles, CNN1-siRNA in nanoparticles, sirolimus in nanoparticles, paclitaxel in nanoparticles, TNFRSF11B-siRNA in nanoparticles, NCF4-siRNA in nanoparticles, and MYL9-siRNA+GAPDH in nanoparticles.
as §4, with “microscopy.” for “microscopy. Finally, pure nanoparticles were used as a vehicle control, that is, with neither drug nor gene silencer.”

swine coronary arteries = assay: In vivo study in swine: stent deployment in the coronary arteries, intravascular ultrasound follow-up; parameters: species or system Large White swine
Description: Experiment 6 was an in vivo study in swine comparing MYH11-siRNA-eluting stent and CNN1-siRNA-eluting stent with bare metal stent and sirolimus-eluting stent.
Eighteen commercially available bare metal stents 2.75×15 mm were covered with MYH11-siRNA in nanoparticles (9 stents) or CNN1-siRNA in nanoparticles (9 stents) using a spray nozzle machine to create an abluminal cover in order to deliver the gene silencers locally in the inner surface of the vessel.
The hybrid lipid-polymer nanoparticles loaded with gene silencers (siRNA) were prepared by the nanoprecipitation method. The aqueous phase consisted of the gene silencer solubilized in 10 mL of water Milli Q under stirring and at a bath temperature of 30° C. The organic phase containing a lipid-cationic compound DSPE-PEG-NH2 (1,2-distearoyl-sn-glycero-3-phosphoethanolamine-N-[amino(polyethyleneglycol)-2000] and the PLGA polymer was then injected into the aqueous phase using a 20 G needle, the suspension being kept under moderate stirring for 5 minutes and then concentrated to a final volume of 10 mL in a rotatory evaporator to eliminate the organic solvent and adjust the final concentration. MYH11-siRNA and CNN1-siRNA concentrations ranging from 10 μg/ml to 100 μg/ml were tested.
After covering the abluminal surface of the 18 stents with MYH11-siRNA in nanoparticles (9 stents) or CNN1-siRNA in nanoparticles (9 stents), the stents were left to dry during 60 minutes, packaged in DuPont Tyvek™ and then sterilized with ethylene oxide (EtO) at 50 C.
Nine Large White swine were submitted to stent deployment in the coronary arteries, 1 stent being deployed in the left anterior descendent (LAD), 2 stents in the circumflex (CX) and 1 stent in the right coronary artery (RCA). The stents were deployed in a diameter ratio of 1.1 in relation to the coronary artery diameter, that is, with a mild oversize, in order to stimulate a similar inflammatory reaction that causes in-stent restenosis, to evaluate the efficacy of the gene silencers in controlling in-stent neointimal hyperplasia in a in vivo model. This oversized stent deployment protocol was previously validated (Lowe H C, Schwartz R S, Mac Neill B D, Jang I K, Hayase M, Rogers C, et al. The porcine coronary model of in-stent restenosis: Current status in the era of drug-eluting stents. Catheter Cardiovasclnterv. 2003:60:515-23.)
The prolonged time of stent re-endothelialization is the critical point of the current commercially available drug-eluting stents. So sirolimus and analogues as paclitaxel decrease the proliferation of vascular smooth muscle cells preventing in-stent neointimal hyperplasia, as well as suppress the proliferation of endothelial cells prolonging the time of stent re-endothelialization. […] Therefore, in order to evaluate the time of stent re-endothelialization, angiographic and intravascular ultrasound follow-up were scheduled at 30, 90 and 180 days after stent deployment.
The intravascular ultrasound analysis was performed tracing 31 frames for each stent with 0.5 mm apart each frame from the distal stent border to the proximal stent border. The data were analysed using one-way ANOVA with Bonferroni post hoc test.
The data of intravascular ultrasound in the index procedure as well as the results regarding in-stent neointimal proliferation at 30, 90 and 180 days after stent deployment are shown in table 1, while the comparative data of intravascular ultrasound regarding stent re-endothelialization at 30, 90 and 180 days after stent deployment are shown in table 2.

[3] = 180 days after stent deployment
[4] = intravascular ultrasound, follow-up (time not specified)

Row | SMILES | VSMC cell proliferation as compared to the full control group (human VSMC [1]) | inhibition of VSMC proliferation in comparison with the control (human VSMC [2]; Experiment 5, control nanoparticles only, FIG. 6) | EC cell proliferation in relation to the full control group (human vascular EC) | EC proliferation compared to the control group (human EC) | human VSMC proliferation (human VSMC [2]; Experiment 7, FIG. 8) | Obstruction: average of percentual obstruction in the whole stent length (swine coronary arteries; 30 days after stent deployment) | re-endothelialization (stent struts coverage) from intravascular ultrasound (swine coronary arteries; 30 days after stent deployment) | Obstruction: average of percentual obstruction in the whole stent length (swine coronary arteries; 90 days after stent deployment) | re-endothelialization (stent struts coverage) from intravascular ultrasound (swine coronary arteries; 90 days after stent deployment) | Obstruction: average of percentual obstruction in the whole stent length (swine coronary arteries; [3]) | re-endothelialization (stent struts coverage) from intravascular ultrasound (swine coronary arteries; [3]) | LLL: late lumen loss (swine coronary arteries; intravascular ultrasound, follow-up) | MLA (minimal luminal area) follow-up (swine coronary arteries; [4]) | MLD (minimal luminal diameter) follow-up (swine coronary arteries; [4])
1 | CC(=O)O[C@H]1C(=O)[C@@]2(C)[C@H]([C@H](OC(=O)c3ccccc3)[C@]3(O)C[C@H](OC(=O)[C@H](O)[C@@H](NC(=O)c4ccccc4)c4ccccc4)C(C)=C1C3(C)C)[C@]1(OC(C)=O)CO[C@@H]1C[C@@H]2O [paclitaxel] | statistically significant inhibition | significant inhibition | statistically significant inhibition | statistically significant inhibition |  |  |  |  |  |  |  |  |  | 
2 | CO[C@H]1C[C@@H]2CC[C@@H](C)[C@@](O)(O2)C(=O)C(=O)N2CCCC[C@H]2C(=O)O[C@H]([C@H](C)C[C@@H]2CC[C@@H](O)[C@H](OC)C2)CC(=O)[C@H](C)/C=C(\C)[C@@H](O)[C@@H](OC)C(=O)[C@H](C)C[C@H](C)/C=C/C=C/C=C/1C [sirolimus] |  |  |  |  | 19% | 11.4 ± 2.2% | 48 ± 3.3% | 12.3 ± 2.1% | 89 ± 3.8% | 13.8 ± 2.4% b | 100% | 0.33 ± 0.12 mm | 6.21 ± 0.16 mm^2 b | 2.68 ± 0.13 mm
